# Several values for one entry are separate records, joined by “and”; a condition that tells them apart may be missing. Equal entries are not always repeated.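 How tested: cells in 96-well plates exposed to compound for 48 hours at five concentrations. At the GI50, growth is halved. TGI denotes the concentration required for complete inhibition of growth.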 *1 amine or outer side, *2 acyl side, *3 side chain or, on linkers, in order; H or OH if unused. Where a SMILES comes first, the peptide text is derived from it. Bridges are numbered along the chain shown (N, C = ends). Roman numbers before positions name the chains, in order. [ ]: non-standard residue; d: D form. Actinocin(9to1) = Cc1c2oc3c(C)ccc(C(=O)[*:1])c3nc-2c(C(=O)[*:2])c(N)c1=O; NMeF = CN[CH](Cc1ccccc1)C(=O)O; Sar = CNCC(=O)O
# Legend:
# Assay in all cases: growth of human tumour cells (NCI), 48 h
# EKVX NSCLC = test system: EKVX NSCLC
# OVCAR-5 ovarian = test system: OVCAR-5 ovarian
# A498 renal = test system: A498 renal
# SK-MEL-2 melanoma = test system: SK-MEL-2 melanoma
# A549 NSCLC = test system: A549 NSCLC
# K-562 leukemia = test system: K-562 leukemia
# UO-31 renal = test system: UO-31 renal
# SF-268 CNS = test system: SF-268 CNS
# HOP-92 NSCLC = test system: HOP-92 NSCLC
# CAKI-1 renal = test system: CAKI-1 renal
SMILES,TGI (EKVX NSCLC),TGI (OVCAR-5 ovarian),TGI (A498 renal),TGI (SK-MEL-2 melanoma),TGI (A549 NSCLC),TGI (K-562 leukemia),TGI (UO-31 renal),TGI (SF-268 CNS),TGI (HOP-92 NSCLC),TGI (CAKI-1 renal),GI50 (EKVX NSCLC),GI50 (OVCAR-5 ovarian),GI50 (A498 renal),GI50 (SK-MEL-2 melanoma),GI50 (A549 NSCLC),GI50 (K-562 leukemia),GI50 (UO-31 renal),GI50 (SF-268 CNS),GI50 (HOP-92 NSCLC),GI50 (CAKI-1 renal)
O=S1Nc2c(Cl)cc(Cl)c(Cl)c2S1 (stereo not given),> 100 µM,> 100 µM,> 100 µM,> 100 µM,> 100 µM,> 100 µM,> 100 µM,> 100 µM,> 100 µM,> 100 µM,–,–,–,–,–,–,–,–,–,–
C[C@@H]1COCCN1c1cc(C2(O)C[C@H]3CC[C@@H](C2)O3)c2cnn(-c3ccn[nH]3)c2n1 (stereo not given in full),0.845 µM,–,0.13 µM,0.202 µM,1.13 µM,> 100 µM,0.554 µM,2.04 µM,0.879 µM,0.627 µM,0.139 µM,0.0977 µM,0.0221 µM,0.0304 µM,0.0651 µM,0.063 µM,0.0427 µM,0.111 µM,0.114 µM,0.0685 µM
C=CC1=C(C)C2=NC1=CC1=NC(=C(CC)/C1=C\O)C=C1N=C3C(=C1C)C(=O)[C@H](C(=O)OC)C3=C1NC(=C2)[C@@H](C)[C@@H]1CCC(=O)O,> 100 µM,> 100 µM,> 100 µM,> 100 µM,> 100 µM,> 100 µM,> 100 µM,> 100 µM,> 100 µM,> 100 µM,–,–,–,–,–,–,–,–,–,–
Cc1coc2c1C(OC(=O)C(C)C)C1(C)C(C)CCC(O)C1C2=O (stereo not given),> 100 µM,> 100 µM,> 100 µM,> 100 µM,> 100 µM,> 100 µM,> 100 µM,> 100 µM,> 100 µM,> 100 µM,–,–,–,–,–,–,–,–,–,–
Cn1cccc1/C=C/c1cc(Br)c(/C=C/c2cccn2C)cc1Br,37.2 µM,> 100 µM,45.1 µM,37.2 µM,39.1 µM,43.9 µM,48 µM,91.9 µM,39.5 µM,39.7 µM,–,–,–,–,–,–,–,–,–,–
CN(C)CCCn1c(-c2nonc2N)nc2cnccc21,> 25 µM,> 25 µM,> 25 µM,> 25 µM,> 25 µM,> 25 µM,> 25 µM,> 25 µM,> 25 µM,> 25 µM,> 25 µM,> 25 µM,12 µM,> 25 µM,> 25 µM,> 25 µM,> 11.2 µM,> 25 µM,1.96 µM,> 25 µM
CC(O)c1cc(C(=O)N[C@@H](C)Cn2ccc(-c3ccc(C#N)c(Cl)c3)n2)n[nH]1 (stereo not given in full),> 100 µM,> 100 µM,55.9 µM,> 100 µM,> 100 µM,> 100 µM,> 100 µM,> 100 µM,> 100 µM,> 100 µM,36.8 µM,> 100 µM,3.51 µM,46.6 µM,85.4 µM,0.73 µM,35.1 µM,> 100 µM,26.5 µM,44.9 µM
N#CC1C=Cc2c(ccc3ccccc23)N1C(=O)c1ccccc1 (stereo not given),–,> 100 µM,2.48 µM,> 60.7 µM,> 100 µM,> 100 µM,> 23.6 µM,> 100 µM,> 100 µM,–,0.31 µM,0.519 µM,0.139 µM,4.61 µM,0.339 µM,0.0537 µM,1.01 µM,1.05 µM,3.1 µM,0.108 µM
CC(=O)[O-].O=C([CH-]C(=O)c1ccccc1)c1ccccc1.O=C([CH-]C(=O)c1ccccc1)c1ccccc1.[Sm+3],16.6 µM,63.1 µM,37.2 µM,6.93 µM,29.5 µM,27.4 µM,12.5 µM,24.5 µM,19.6 µM,15.9 µM,2.11 µM,21.4 µM,13.1 µM,2.03 µM,6.11 µM,3.68 µM,3.79 µM,3.39 µM,4.96 µM,3.57 µM
"Cc1c2oc3c(C)ccc(C(=O)NC4C(=O)NC(C(C)C)C(=O)N5CCCC5C(=O)N(C)CC(=O)N(C)C(Cc5ccccc5)C(=O)OC4C)c3nc-2c(C(=O)NC2C(=O)NC(C(C)C)C(=O)N3CCCC3C(=O)N(C)CC(=O)N(C)C(Cc3ccccc3)C(=O)OC2C)c(N)c1=O (stereo not given) (I: TVP[Sar][NMeF] / II: TVP[Sar][NMeF]; ester I:1-I:C, II:1-II:C; linker I:N-II:N via Actinocin(9to1); configuration not given here)",0.0931 µM and > 0.603 µM,2.01 µM and > 0.41 µM,< 0.01 µM and 0.0378 µM,< 0.01 µM and 0.0326 µM,0.295 µM and > 1 µM,–,–,> 0.674 µM,< 0.0476 µM and 0.0606 µM,2.79 µM and > 0.223 µM,< 0.01 µM and 0.0389 µM,< 0.01 µM and 0.0335 µM,–,–,< 0.01 µM and 0.00145 µM,0.00115 µM,< 0.01 µM and 0.0968 µM,–,–,–
COc1c(B(O)O)cc(F)cc1-c1nc2ccc3[nH]ncc3c2c2c1CCCC2,10.2 µM,16.9 µM,2.52 µM,7.05 µM,16 µM,> 100 µM,9.21 µM,10.5 µM,14.4 µM,0.134 µM,2.37 µM,2.46 µM,0.0664 µM,2.67 µM,1.17 µM,3.27 µM,0.045 µM,1.42 µM,< 0.01 µM,< 0.01 µM
Cc1ccc(Sc2cc3c(oc2=O)-c2ccccc2OC3O)cc1 (stereo not given),43.9 µM,49 µM,51.5 µM,47.7 µM,74.8 µM,> 100 µM,50.4 µM,88.6 µM,51.9 µM,78.1 µM,21.9 µM,23.9 µM,26.1 µM,22.1 µM,28.5 µM,27.7 µM,21.7 µM,30.3 µM,23.4 µM,32 µM
C/C=N\N1C(=O)c2ccccc2C1=O,> 100 µM,> 100 µM,> 100 µM,> 100 µM,> 100 µM,> 100 µM,> 100 µM,> 100 µM,> 100 µM,> 100 µM,–,–,–,–,–,–,–,–,–,–
COc1cccc2c1n([O-])c1cccc(OC)c1[n+]2=O,37 µM,27.3 µM,> 100 µM,> 100 µM,> 100 µM,> 100 µM,32.7 µM,35.3 µM,> 100 µM,76.5 µM,7.26 µM,9.71 µM,16.4 µM,17.8 µM,7.78 µM,6.13 µM,6.7 µM,6.71 µM,16.3 µM,3.97 µM
